Source: patent publication US10259810B2, “N-sulfonylated pyrazolo[3,4-b]pyridin-6-carboxamides and method of use” (AbbVie S.à.r.l., priority 2015, dated 2019)

Columns and labels:
[1] = target: T1, ΔF508-CFTR (Homo sapiens, UniProt P13569, DEL508-508); test: CFTR cell surface levels using HRP-tagged ΔF508-CFTR expressing CFBE cells, in the presence of a co-corrector; format: cell-based; details: HRP-tagged ΔF508-CFTR CFBE cells, in the presence of 3 μM co-corrector; for EC50: read-out: EC50
T1 construct: host or cells: CFBE41o-, doxycycline-inducible
Method in brief: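 Chemiluminescent read-out of surface HRP (15 min, dark) after PBS washes. Activity is normalized as 100×(sample−DMSO)/(3 μM co-corrector alone−DMSO).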

[2] = target: T1, ΔF508-CFTR; test: CFTR cell surface levels using HRP-tagged ΔF508-CFTR expressing CFBE cells, intrinsic corrector capacity; format: cell-based; set-up: % Activation: concentration or dose not given beside the values; details: HRP-tagged ΔF508-CFTR expressing CFBE41o- cells, compound alone (intrinsic corrector capacity), 20 hours at 33° C.; for EC50: read-out: EC50
Method in brief: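 Read-out: chemiluminescent HRP activity of ECL4-HRP-tagged ΔF508-CFTR at the cell surface, 15 min substrate in dark. Normalized as 100×(sample−DMSO)/(positive control−DMSO).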

T1 sequence (P13569 with tags, fused parts or gaps DEL508-508): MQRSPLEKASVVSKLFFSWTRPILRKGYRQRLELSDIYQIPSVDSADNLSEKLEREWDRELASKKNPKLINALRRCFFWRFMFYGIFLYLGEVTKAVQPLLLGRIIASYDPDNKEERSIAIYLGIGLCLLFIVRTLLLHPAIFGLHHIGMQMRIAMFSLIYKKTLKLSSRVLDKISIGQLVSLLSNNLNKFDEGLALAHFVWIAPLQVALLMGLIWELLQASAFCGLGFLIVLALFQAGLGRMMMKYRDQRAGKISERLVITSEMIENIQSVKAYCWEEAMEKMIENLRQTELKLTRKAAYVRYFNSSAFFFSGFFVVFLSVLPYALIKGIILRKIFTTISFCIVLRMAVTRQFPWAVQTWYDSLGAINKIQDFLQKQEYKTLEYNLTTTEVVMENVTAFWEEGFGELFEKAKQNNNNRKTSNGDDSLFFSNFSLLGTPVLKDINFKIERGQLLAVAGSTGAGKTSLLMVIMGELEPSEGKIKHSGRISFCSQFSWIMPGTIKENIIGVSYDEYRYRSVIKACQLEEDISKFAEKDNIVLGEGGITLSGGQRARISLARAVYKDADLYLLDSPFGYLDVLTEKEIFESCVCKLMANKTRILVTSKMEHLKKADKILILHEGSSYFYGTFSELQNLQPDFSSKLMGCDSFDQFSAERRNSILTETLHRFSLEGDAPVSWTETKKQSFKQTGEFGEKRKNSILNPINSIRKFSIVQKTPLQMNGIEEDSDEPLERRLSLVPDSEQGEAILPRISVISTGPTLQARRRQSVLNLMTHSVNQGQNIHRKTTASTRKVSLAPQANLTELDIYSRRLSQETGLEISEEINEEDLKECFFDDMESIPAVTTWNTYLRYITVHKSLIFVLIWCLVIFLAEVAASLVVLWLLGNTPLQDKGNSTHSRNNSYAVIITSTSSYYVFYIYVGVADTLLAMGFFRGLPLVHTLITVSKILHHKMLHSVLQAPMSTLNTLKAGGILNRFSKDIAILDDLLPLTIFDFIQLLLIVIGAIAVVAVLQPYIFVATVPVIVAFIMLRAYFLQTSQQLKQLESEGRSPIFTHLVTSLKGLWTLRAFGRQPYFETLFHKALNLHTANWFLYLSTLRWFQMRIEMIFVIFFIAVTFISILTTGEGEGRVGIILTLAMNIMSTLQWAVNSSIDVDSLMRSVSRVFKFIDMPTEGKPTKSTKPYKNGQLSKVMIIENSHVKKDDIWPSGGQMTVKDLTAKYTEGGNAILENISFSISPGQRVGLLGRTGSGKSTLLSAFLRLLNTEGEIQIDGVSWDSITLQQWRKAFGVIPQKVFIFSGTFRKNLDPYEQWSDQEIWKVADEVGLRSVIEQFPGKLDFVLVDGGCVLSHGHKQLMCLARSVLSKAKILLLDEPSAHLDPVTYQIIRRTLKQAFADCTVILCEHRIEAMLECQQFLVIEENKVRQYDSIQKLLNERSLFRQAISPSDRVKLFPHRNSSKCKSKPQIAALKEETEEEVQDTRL

Compound | % Activation [1] [%] | EC50 [1] [nM] | % Activation [2] [%] | EC50 [2] [nM]
CN(C)S(=O)(=O)NC(=O)c1cc(-c2ccc(CN3CCOCC3)cc2)c2c(OC3CCC3)nn(C3CCCCC3)c2n1 [Compound 481, 3-(cyclobutyloxy)-1-cyclohexyl-N-(dimethylsulfamoyl)-4-{4-[(morpholin-4-yl)methyl]phenyl}-1H-pyrazolo[3,4-b]pyridine-6-carboxamide] | 285.65 | 154 | 114.2 | 278
CC(C)N(C)S(=O)(=O)NC(=O)c1cc(N2CCC(N3CCOCC3)CC2)c2c(C3CCC3)nn(-c3ccc(F)cc3)c2n1 [Compound 482, 3-cyclobutyl-1-(4-fluorophenyl)-N-[methyl(propan-2-yl)sulfamoyl]-4-[4-(morpholin-4-yl)piperidin-1-yl]-1H-pyrazolo[3,4-b]pyridine-6-carboxamide] | 436.4 | 61.6 | 214.1 | 88.2
CCN(C)S(=O)(=O)NC(=O)c1cc(N2CCC(N3CCOCC3)CC2)c2c(C3CCC3)nn(-c3ccc(F)cc3)c2n1 [Compound 483, 3-cyclobutyl-N-[ethyl(methyl)sulfamoyl]-1-(4-fluorophenyl)-4-[4-(morpholin-4-yl)piperidin-1-yl]-1H-pyrazolo[3,4-b]pyridine-6-carboxamide] | 438.2 | 56.1 | 212.7 | 84.9
O=C(NS(=O)(=O)N1CCCC1)c1cc(N2CCC(N3CCOCC3)CC2)c2c(C3CCC3)nn(-c3ccc(F)cc3)c2n1 [Compound 485, 3-cyclobutyl-1-(4-fluorophenyl)-4-[4-(morpholin-4-yl)piperidin-1-yl]-N-(pyrrolidine-1-sulfonyl)-1H-pyrazolo[3,4-b]pyridine-6-carboxamide] | 399.1 | 90.2 | 218.55 | 155
O=C(NS(=O)(=O)CC(F)(F)F)c1cc(N2CCC(N3CCOCC3)CC2)c2c(C3CCC3)nn(-c3ccc(F)cc3)c2n1 [Compound 486, 3-cyclobutyl-1-(4-fluorophenyl)-4-[4-(morpholin-4-yl)piperidin-1-yl]-N-(2,2,2-trifluoroethanesulfonyl)-1H-pyrazolo[3,4-b]pyridine-6-carboxamide] | 569 | 181 | 332.5 | 467
COCCS(=O)(=O)NC(=O)c1cc(N2CCC(N3CCCCC3)CC2)c2c(C3CCC3)nn(-c3ccc(F)cc3)c2n1 [Compound 488, 4-([1,4'-bipiperidin]-1'-yl)-3-cyclobutyl-1-(4-fluorophenyl)-N-(2-methoxyethanesulfonyl)-1H-pyrazolo[3,4-b]pyridine-6-carboxamide] | 488.15 | 683 | 246.55 | 655
CC(C)c1nn(-c2ccnc(N3CCOCC3)c2)c2nc(C(=O)NS(=O)(=O)N(C)C)cc(OCC3CCOCC3)c12 [Compound 489, N-(dimethylsulfamoyl)-1-[2-(morpholin-4-yl)pyridin-4-yl]-4-[(oxan-4-yl)methoxy]-3-(propan-2-yl)-1H-pyrazolo[3,4-b]pyridine-6-carboxamide] | 280 | 241 | 99.6 | 141
CS(=O)(=O)NC(=O)c1cc(N2CCC(N3CCOCC3)CC2)c2c(C3CCC3)nn(-c3ccnc(C4CCOCC4)c3)c2n1 [Compound 490, 3-cyclobutyl-N-(methanesulfonyl)-4-[4-(morpholin-4-yl)piperidin-1-yl]-1-[2-(oxan-4-yl)pyridin-4-yl]-1H-pyrazolo[3,4-b]pyridine-6-carboxamide] | 303.9 | 693 | 139.7 | 1550
O=C(NS(=O)(=O)CCO)c1cc(N2CCC(CCN3CCOCC3)CC2)c2c(C3CCC3)nn(-c3ccc(F)cc3)c2n1 [Compound 491, 3-cyclobutyl-1-(4-fluorophenyl)-N-(2-hydroxyethanesulfonyl)-4-{4-[2-(morpholin-4-yl)ethyl]piperidin-1-yl}-1H-pyrazolo[3,4-b]pyridine-6-carboxamide] | 490.9 | 488 | 204.5 | 248
COC(=O)N1CCN(C2CCN(c3cc(C(=O)NS(=O)(=O)N(C)C)nc4c3c(C3CCC3)nn4-c3ccc(F)cc3)CC2)CC1 [Compound 492, methyl 4-(1-{3-cyclobutyl-6-[(dimethylsulfamoyl)carbamoyl]-1-(4-fluorophenyl)-1H-pyrazolo[3,4-b]pyridin-4-yl}piperidin-4-yl)piperazine-1-carboxylate] | 483.4 | 43.9 | 311 | 79.9
CCS(=O)(=O)NC(=O)c1cc(N2CCC(CN3CCOCC3)CC2)c2c(C3CCC3)nn(-c3ccc(F)cc3)c2n1 [Compound 494, 3-cyclobutyl-N-(ethanesulfonyl)-1-(4-fluorophenyl)-4-{4-[(morpholin-4-yl)methyl]piperidin-1-yl}-1H-pyrazolo[3,4-b]pyridine-6-carboxamide] | 551.8 | 37.1 | 315.4 | 110
CCOC(=O)N1CCC(c2cc(C(=O)NS(C)(=O)=O)nc3c2c(C(C)C)nn3-c2ccc(F)cc2)CC1 [Compound 496, ethyl 4-[1-(4-fluorophenyl)-6-[(methanesulfonyl)carbamoyl]-3-(propan-2-yl)-1H-pyrazolo[3,4-b]pyridin-4-yl]piperidine-1-carboxylate] | 374.65 | 243 | 199.9 | 282
CCOC(=O)N1CCC(c2cc(C(=O)NS(=O)(=O)N(C)C)nc3c2c(C(C)C)nn3-c2ccc(F)cc2)CC1 [Compound 497, ethyl 4-{6-[(dimethylsulfamoyl)carbamoyl]-1-(4-fluorophenyl)-3-(propan-2-yl)-1H-pyrazolo[3,4-b]pyridin-4-yl}piperidine-1-carboxylate] | 378.25 | 288 | 195.7 | 410
Cc1cccc(-n2nc(C3CCC3)c3c(N4CCC(N5CCOCC5)CC4)cc(C(=O)NS(=O)(=O)N(C)C)nc32)c1 [Compound 498, 3-cyclobutyl-N-(dimethylsulfamoyl)-1-(3-methylphenyl)-4-[4-(morpholin-4-yl)piperidin-1-yl]-1H-pyrazolo[3,4-b]pyridine-6-carboxamide] | 456.3 | 95.1 | 288.1 | 144
COc1cccc(-n2nc(C3CCC3)c3c(N4CCC(N5CCOCC5)CC4)cc(C(=O)NS(=O)(=O)N(C)C)nc32)c1 [Compound 499, 3-cyclobutyl-N-(dimethylsulfamoyl)-1-(3-methoxyphenyl)-4-[4-(morpholin-4-yl)piperidin-1-yl]-1H-pyrazolo[3,4-b]pyridine-6-carboxamide] | 439.6 | 71.2 | 287.5 | 186
CN(C)S(=O)(=O)NC(=O)c1cc(N2CCC(N3CCOCC3)CC2)c2c(C3CCC3)nn(-c3ccc(C(F)(F)F)cc3)c2n1 [Compound 500, 3-cyclobutyl-N-(dimethylsulfamoyl)-4-[4-(morpholin-4-yl)piperidin-1-yl]-1-[4-(trifluoromethyl)phenyl]-1H-pyrazolo[3,4-b]pyridine-6-carboxamide] | 330.05 | 84.2 | 137.5 | 173
CCOCC1(F)CCN(c2cc(C(=O)NS(C)(=O)=O)nc3c2c(C2CCC2)nn3-c2ccccc2)CC1 [Compound 501, 3-cyclobutyl-4-[4-(ethoxymethyl)-4-fluoropiperidin-1-yl]-N-(methanesulfonyl)-1-phenyl-1H-pyrazolo[3,4-b]pyridine-6-carboxamide] | 403.55 | 124 | 188.7 | 211
COCCOCC1(F)CCN(c2cc(C(=O)NS(C)(=O)=O)nc3c2c(C2CCC2)nn3-c2ccccc2)CC1 [Compound 502, 3-cyclobutyl-4-{4-fluoro-4-[(2-methoxyethoxy)methyl]piperidin-1-yl}-N-(methanesulfonyl)-1-phenyl-1H-pyrazolo[3,4-b]pyridine-6-carboxamide] | 383.8 | 177 | 214.2 | 345
COCCOCC1(F)CCCN(c2cc(C(=O)NS(C)(=O)=O)nc3c2c(C2CCC2)nn3-c2ccccc2)C1 (centres unmarked) [Compound 503, 3-cyclobutyl-4-{3-fluoro-3-[(2-methoxyethoxy)methyl]piperidin-1-yl}-N-(methanesulfonyl)-1-phenyl-1H-pyrazolo[3,4-b]pyridine-6-carboxamide] | 433.2 | 405 | 203.4 | 419
COCC1(F)CCN(c2cc(C(=O)NS(C)(=O)=O)nc3c2c(C2CCC2)nn3-c2ccccc2)CC1 [Compound 504, 3-cyclobutyl-4-[4-fluoro-4-(methoxymethyl)piperidin-1-yl]-N-(methanesulfonyl)-1-phenyl-1H-pyrazolo[3,4-b]pyridine-6-carboxamide] | 404.8 | 210 | 206.4 | 301
